Laboratory results published in patent US20060089408A1, “Method of treating blepharospasm with a prostaglandin derivative” (priority 2004, published 2006).
Several values for one entry are separate records, joined by “and”; a condition that tells them apart may be missing. Equal values may be shown once.

Tested on: patients with blepharospasm
Assay: Observational prospective case series of 21 consecutive patients with blepharospasm treated with Latanoprost
Assay type: in vivo, human
Protocol: It is the inventor's unique discovery that latanoprost improves some forms of blepharospasm. Over a period of three years starting from 2000, 21 patients with various forms of blepharospasm were treated with latanoprost. In more than 75% of the cases observed, the symptoms of blepharospasm were much improved ranging from mild resolution to complete improvement.
Observational prospective case series of 21 consecutive patients comprising mostly Asian descent with blepharospasm were treated with Latanoprost for a mean follow-up period of 1.5 years. Assessment of therapy was made by symptomatic evaluation and clinical examination. Severity of patient's initial symptoms ranged from myokimia to blepharospasm with facial dystonia.
The patients were pooled from the Los Angeles County metropolitan area and the Pacific Rim and all of the patients are of Chinese descent. The patients were excluded if they had secondary causes of blepharospasm such as light sensitivity, lid hygiene (blepharitis), dry eyes, and emotional or physical psychological stressors.
Therapeutic intervention involved administration of one drop of Latanoprost in the affected eye at night. Adverse effects were assessed by the patient's subjective feedback and physician's examination. Outcome assessment was determined mainly by subjective reporting by the patient.
Table 1 illustrates the physician's grading scale, wherein grade I signified blepharospasm isolated just to the eyes; Grade II described blepharospasm with some form of facial dystonia; and Grade III described blepharospasm with facial dystonia extending to the neck region
Table 2 illustrates patient's subjective evaluation of improvement that subjective opinion of improvement is on a scale ranging from 0 to 10, where zero indicated no improvement and 10 indicated complete resolution.
Table 3 illustrates demographics and clinical data of the patients involved in the above clinical study. In Table 3, F represent female, M represent male, duration represents duration of treatment, OU represents blepharospasm in both eyes, OD represents blepharospasm in right eye only, and OS represents blepharospasm in left eye. Date start illustrates the date starting treatment of prostaglandin derivatives, improvement illustrates the time required for first noticeable improvement, while scale imp represents scale of improvement according to the subjective evaluation grading as shown in Table 2.

SMILES: CC(C)OC(=O)CCC/C=C\C[C@@H]1[C@@H](CC[C@@H](O)CCc2ccccc2)[C@H](O)C[C@@H]1O [Latanoprost, isopropyl-(Z)-7[(1R,2R,3R,5S)3,5-dihydroxy-2-[(3R)-3-hydroxy-5-phenylpentyl]cyclopentyl]-5-heptenoate]
- patients who reported moderate to complete resolution of symptoms after treatment (21 consecutive patients, mean follow-up 1.5 years): over 75%
- cases in which symptoms of blepharospasm were much improved, ranging from mild resolution to complete improvement (21 patients with various forms of blepharospasm, three years starting from 2000): more than 75%
- change in spasm of eyelids and face (Case 1, 30 years history, right eye, 1.5 ug per day, after 3 weeks of treatment): considerable decrease in spasm of their eyelids and face
- patients who noted subjective improvement in their blepharospasm (after treatment, 21 patients): 19 of 21
- patients who reported no change (after treatment, 21 patients): 2 patients
- duration of treatment required before effects were seen (general statement on the series): approximately 2 months
- Improvement (time required for first noticeable improvement) (individual patient, one drop in the affected eye at night): 2 months (13×) and 1 months (6×)
- Scale imp (scale of improvement, patient's subjective evaluation grading) (individual patient, scale 0 to 10: 0 no improvement, 5 50% improvement, 10 complete resolution, one drop in the affected eye at night): 5 (6×) and 10 (2×) and 8 (6×) and 7 and 9 (3×) and 6 and 0 (2×)
- time at which noticeable improvements occurred after initiation of treatment (whole series of 21 patients): 1-2 months
- average amount of improvement (whole series, subjective scale 0 to 10): 6.95
